Laboratory results published in patent publication US20240043427A1 (Gilead Sciences, Inc., priority 2020, published 2024).

Tests used:
CD73 [1] = target: T1, CD73 (Homo sapiens (Human), UniProt P21589); experiment: MDA-MB-231 Cell Based CD73 Activity Assay (DMEM); details: MDA-MB-231-GFP cells, DMEM medium with 10% human plasma, 200 uM AMP
CD73 [2] = target: T1, CD73; type: biochemical; details: 1 mM NaH2PO4 in enzyme buffer, CD73 0.3 nM, AMP 15 uM
Protocol: Compound serial dilutions were pre-spotted into Thermo Nunc assay plate. 50 uL CD73 enzyme buffer (CD73 purchased from R&D system=0.6 nM, 25 mM Tris, pH 7.4, 5 mM MgCl2, 1 mM NaH2PO4) was added into the assay plate and incubate for 15 mins. […] After incubation for 60 mins, the supernatant (20 uL) was transferred into 384-well NUNC plate pre-filled with 60 uL Quench buffer (80% organic and 20% water+0.1% FA) with internal standard. The plate was spun down at 4500 rpm for 20 mins, then 20 uL of supernatant was transferred to another Nunc plate prefilled with 80 uL of water. The samples were analyzed using Rapid fire.

T1 sequence (P21589 27-574): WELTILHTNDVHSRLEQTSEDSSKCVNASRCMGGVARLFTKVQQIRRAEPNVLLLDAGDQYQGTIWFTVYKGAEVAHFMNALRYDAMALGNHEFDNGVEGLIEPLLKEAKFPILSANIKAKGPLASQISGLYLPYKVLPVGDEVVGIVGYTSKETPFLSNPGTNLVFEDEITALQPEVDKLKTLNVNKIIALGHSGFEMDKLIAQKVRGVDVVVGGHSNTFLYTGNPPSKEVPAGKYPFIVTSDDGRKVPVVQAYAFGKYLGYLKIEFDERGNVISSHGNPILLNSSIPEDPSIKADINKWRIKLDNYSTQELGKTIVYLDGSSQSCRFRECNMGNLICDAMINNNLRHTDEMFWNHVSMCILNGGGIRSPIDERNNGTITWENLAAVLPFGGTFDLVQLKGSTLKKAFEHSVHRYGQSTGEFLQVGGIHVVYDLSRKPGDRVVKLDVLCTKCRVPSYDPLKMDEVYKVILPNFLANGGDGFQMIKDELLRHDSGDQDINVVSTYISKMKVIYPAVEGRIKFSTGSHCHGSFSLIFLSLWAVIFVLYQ

| Structure (SMILES) | EC50 (CD73 [1]) [nM] | IC50 (CD73 [2]) [nM] |
| --- | --- | --- |
| O=c1[nH]cc(-c2cc([C@H]3C[C@@H]3c3ccc4c(Cl)nn(CC(F)(F)F)c4c3)c3nccn3n2)c(=O)[nH]1 [Example 459, 5-(8-((1S,2S)-2-(3-chloro-1-(2,2,2-trifluoroethyl)-1H-indazol-6-yl)cyclopropyl)imidazo[1,2-b]pyridazin-6-yl)pyrimidine-2,4(1H,3H)-dione] | 0.38 | 0.75 |
| O=c1[nH]cc(-c2cc([C@H]3C[C@@H]3c3cc(Cl)c4cnn(CC(F)(F)F)c4c3)c3nccn3n2)c(=O)[nH]1 [Example 460, 5-(8-((1S,2S)-2-(4-chloro-1-(2,2,2-trifluoroethyl)-1H-indazol-6-yl)cyclopropyl)imidazo[1,2-b]pyridazin-6-yl)pyrimidine-2,4(1H,3H)-dione] | 0.38 | 0.46 |
| N#Cc1ccc([C@H]2C[C@@H]2c2cc(-c3c[nH]c(=O)[nH]c3=O)nn3ccnc23)cc1 [Example 465, 4-((1S,2S)-2-(6-(2,4-dioxo-1,2,3,4-tetrahydropyrimidin-5-yl)imidazo[1,2-b]pyridazin-8-yl)cyclopropyl)benzonitrile] | 3.24 | 0.86 |
| N#Cc1ccc([C@H]2C[C@@H]2c2cc(-c3c[nH]c(=O)[nH]c3=O)nn3ccnc23)cc1F [Example 467, 4-((1S,2S)-2-(6-(2,4-dioxo-1,2,3,4-tetrahydropyrimidin-5-yl)imidazo[1,2-b]pyridazin-8-yl)cyclopropyl)-2-fluorobenzonitrile] | 3.86 | 0.85 |
| O=c1[nH]cc(-c2cc([C@H]3C[C@@H]3c3ccc(F)cc3F)n3nccc3n2)c(=O)[nH]1 [Example 469, 5-(7-((1S,2S)-2-(2,4-difluorophenyl)cyclopropyl)pyrazolo[1,5-a]pyrimidin-5-yl)pyrimidine-2,4(1H,3H)-dione] | 15 | 1.73 |
| O=c1[nH]cc(-c2cc(N3C[C@@H](F)[C@@H](F)C3)n3ncnc3n2)c(=O)[nH]1 [Example 472, 5-(7-((3R,4S)-3,4-difluoropyrrolidin-1-yl)-[1,2,4]triazolo[1,5-a]pyrimidin-5-yl)pyrimidine-2,4(1H,3H)-dione] | 58.6 | 15.6 |
| COC1CN(c2cc(-c3c[nH]c(=O)[nH]c3=O)nn3c(F)cnc23)CC1(F)F (stereo not shown) [Example 474, 5-(8-(3,3-difluoro-4-methoxypyrrolidin-1-yl)-3-fluoroimidazo[1,2-b]pyridazin-6-yl)pyrimidine-2,4(1H,3H)-dione] | 26.7 | 7.47 |
| CC(C)Cc1cn2nc(-c3c[nH]c(=O)[nH]c3=O)cc(N3CC(F)(F)C4(CC4)C3)c2n1 [Example 475, 5-(8-(7,7-difluoro-5-azaspiro[2.4]heptan-5-yl)-2-isobutylimidazo[1,2-b]pyridazin-6-yl)pyrimidine-2,4(1H,3H)-dione] | 932 | 32.1 |
| O=c1[nH]cc(-c2cc(N3CC4CCC4(F)C3)c3nccn3n2)c(=O)[nH]1 (stereo not shown) [Example 478, 5-(8-(1-fluoro-3-azabicyclo[3.2.0]heptan-3-yl)imidazo[1,2-b]pyridazin-6-yl)pyrimidine-2,4(1H,3H)-dione] | 53.7 | 32.1 |
| CC1CN(c2cc(-c3c[nH]c(=O)[nH]c3=O)nn3ccnc23)CC1(F)F (stereo not shown) [Example 479, 5-(8-(3,3-difluoro-4-methylpyrrolidin-1-yl)imidazo[1,2-b]pyridazin-6-yl)pyrimidine-2,4(1H,3H)-dione] | 9.06 | 2.6 |
| O=C1CCN(c2cc(-c3c[nH]c(=O)[nH]c3=O)nn3ccnc23)N1 [Example 480, 5-(8-(3-oxopyrazolidin-1-yl)imidazo[1,2-b]pyridazin-6-yl)pyrimidine-2,4(1H,3H)-dione] | 1920 | > 250 |
| O=c1[nH]cc(-c2cc(N3CC(F)(F)C3)c3nccn3n2)c(=O)[nH]1 [Example 481, 5-(8-(3,3-difluoroazetidin-1-yl)imidazo[1,2-b]pyridazin-6-yl)pyrimidine-2,4(1H,3H)-dione] | 44.4 | 26.1 |
| CC1CCN(c2cc(-c3c[nH]c(=O)[nH]c3=O)nn3ccnc23)CCC1(F)F (stereo not shown) [Example 484, 5-(8-(4,4-difluoro-5-methylazepan-1-yl)imidazo[1,2-b]pyridazin-6-yl)pyrimidine-2,4(1H,3H)-dione] | 180 | 68.7 |
| CC(C)(O)CCNc1cc(-c2c[nH]c(=O)[nH]c2=O)nn2ccnc12 [Example 485, 5-(8-((3-hydroxy-3-methylbutyl)amino)imidazo[1,2-b]pyridazin-6-yl)pyrimidine-2,4(1H,3H)-dione] | 700 | > 250 |
| O=c1[nH]cc(-c2cc(NCCc3ccccc3)c3nccn3n2)c(=O)[nH]1 [Example 487, 5-(8-(phenethylamino)imidazo[1,2-b]pyridazin-6-yl)pyrimidine-2,4(1H,3H)-dione] | 81 | 27.9 |
| CC(C)(C)OC(=O)N1CC2(C1)CN(c1cc(-c3c[nH]c(=O)[nH]c3=O)nn3ccnc13)CC2(F)F [Example 488, tert-butyl 6-(6-(2,4-dioxo-1,2,3,4-tetrahydropyrimidin-5-yl)imidazo[1,2-b]pyridazin-8-yl)-8,8-difluoro-2,6-diazaspiro[3.4]octane-2-carboxylate] | 13 | 16.9 |
| O=c1[nH]cc(-c2cc(NCCc3cccc(Cl)c3)c3nccn3n2)c(=O)[nH]1 [Example 490, 5-(8-((3-chlorophenethyl)amino)imidazo[1,2-b]pyridazin-6-yl)pyrimidine-2,4(1H,3H)-dione] | 463 | 95 |
| O=c1[nH]cc(-c2cc(NCCc3cccc(F)c3)c3nccn3n2)c(=O)[nH]1 [Example 492, 5-(8-((3-fluorophenethyl)amino)imidazo[1,2-b]pyridazin-6-yl)pyrimidine-2,4(1H,3H)-dione] | 58.4 | 25.6 |
| O=c1[nH]cc(-c2cc(NC[C@@H](F)c3ccccc3)c3nccn3n2)c(=O)[nH]1 [Example 494, (S)-5-(8-((2-fluoro-2-phenylethyl)amino)imidazo[1,2-b]pyridazin-6-yl)pyrimidine-2,4(1H,3H)-dione] | 291 | 102 |
| O=c1[nH]cc(-c2cc(NCCc3c[nH]c4ccc(Cl)cc34)c3nccn3n2)c(=O)[nH]1 [Example 495, 5-(8-((2-(5-chloro-1H-indol-3-yl)ethyl)amino)imidazo[1,2-b]pyridazin-6-yl)pyrimidine-2,4(1H,3H)-dione] | 748 | > 250 |
| O=c1[nH]cc(-c2cc(NCCc3ccc(F)cc3)c3nccn3n2)c(=O)[nH]1 [Example 496, 5-(8-((4-fluorophenethyl)amino)imidazo[1,2-b]pyridazin-6-yl)pyrimidine-2,4(1H,3H)-dione] | 154 | 64 |
| O=c1[nH]cc(-c2cc(NCCc3ccc(Cl)cc3)c3nccn3n2)c(=O)[nH]1 [Example 497, 5-(8-((4-chlorophenethyl)amino)imidazo[1,2-b]pyridazin-6-yl)pyrimidine-2,4(1H,3H)-dione] | 569 | 64.5 |

Continued, values first:

| EC50 (CD73 [1]) [nM] | IC50 (CD73 [2]) [nM] | Structure (SMILES) |
| --- | --- | --- |
| 0.13 | 0.23 | O=c1[nH]cc(-c2cc([C@H]3C[C@@H]3c3ccc4cnn(CC(F)(F)F)c4c3)c3ncc(Cl)n3n2)c(=O)[nH]1 [Example 470, 5-(3-chloro-8-((1S,2S)-2-(1-(2,2,2-trifluoroethyl)-1H-indazol-6-yl)cyclopropyl)imidazo[1,2-b]pyridazin-6-yl)pyrimidine-2,4(1H,3H)-dione] |
| 18.3 | 5.76 | COC1CN(c2cc(-c3c[nH]c(=O)[nH]c3=O)nn3ccnc23)CC1(F)F (stereo not shown) [Example 473, 5-(8-(3,3-difluoro-4-methoxypyrrolidin-1-yl)imidazo[1,2-b]pyridazin-6-yl)pyrimidine-2,4(1H,3H)-dione] |
| 32.2 | 38.8 | O=c1[nH]cc(-c2cc(N3C[C@H]4CC[C@H]4C3)c3nccn3n2)c(=O)[nH]1 [Example 476, 5-(8-(cis-3-azabicyclo[3.2.0]heptan-3-yl)imidazo[1,2-b]pyridazin-6-yl)pyrimidine-2,4(1H,3H)-dione] |
| 952 | > 250 | COC[C@@H]1CCCN1c1cc(-c2c[nH]c(=O)[nH]c2=O)nn2ccnc12 [Example 477, (S)-5-(8-(2-(methoxymethyl)pyrrolidin-1-yl)imidazo[1,2-b]pyridazin-6-yl)pyrimidine-2,4(1H,3H)-dione] |
| 1230 | > 250 | O=C1CN(c2cc(-c3c[nH]c(=O)[nH]c3=O)nn3ccnc23)CCN1Cc1ccc(F)cc1 [Example 482, 5-(8-(4-(4-fluorobenzyl)-3-oxopiperazin-1-yl)imidazo[1,2-b]pyridazin-6-yl)pyrimidine-2,4(1H,3H)-dione] |
| 566 | > 250 | O=c1[nH]cc(-c2cc(N3CCCCCC3)c3nccn3n2)c(=O)[nH]1 [Example 483, 5-(8-(azepan-1-yl)imidazo[1,2-b]pyridazin-6-yl)pyrimidine-2,4(1H,3H)-dione] |
| 1010 | > 250 | O=c1[nH]cc(-c2cc(NCCCc3ccccc3)c3nccn3n2)c(=O)[nH]1 [Example 486, 5-(8-((3-phenylpropyl)amino)imidazo[1,2-b]pyridazin-6-yl)pyrimidine-2,4(1H,3H)-dione] |
| 1680 | > 250 | O=c1[nH]cc(-c2cc(NCCc3cccc(C(F)(F)F)c3)c3nccn3n2)c(=O)[nH]1 [Example 489, 5-(8-((3-(trifluoromethyl)phenethyl)amino)imidazo[1,2-b]pyridazin-6-yl)pyrimidine-2,4(1H,3H)-dione] |
| 1680 | > 250 | O=c1[nH]cc(-c2cc(NCCc3ccccc3Cl)c3nccn3n2)c(=O)[nH]1 [Example 491, 5-(8-((2-chlorophenethyl)amino)imidazo[1,2-b]pyridazin-6-yl)pyrimidine-2,4(1H,3H)-dione] |
| 837 | 194 | O=c1[nH]cc(-c2cc(NCCc3ccccc3F)c3nccn3n2)c(=O)[nH]1 [Example 493, 5-(8-((2-fluorophenethyl)amino)imidazo[1,2-b]pyridazin-6-yl)pyrimidine-2,4(1H,3H)-dione] |
